Compound | melting point [°C]
CNC(=O)[C@H](O)[C@@H](Sc1ccccc1N)c1ccc(OC)cc1 | 145 to 147
Cc1cc(C)c(C(C)(C#N)c2nc(C)nc(Cl)c2C)c(C)c1 (stereo not drawn) | 181 to 183
C=CS(=O)(=O)CCCS(=O)(=O)C=C | 60 to 63
O=C1NC(=S)S/C1=C\c1ccc(COc2ccc(C(=O)c3ccccc3)cc2)cc1 | 244 to 246
Cc1nc(C)c(Cl)c(NCc2ccc(OCCn3c([N+](=O)[O-])cnc3C)cn2)n1 | 182 to 184
Cc1c2sc3ccccc3nc-2c2c(O)cccc2c1=O | 226 to 228
CC(Br)c1ncnc(Sc2ccc(Cl)cc2)c1F (stereo not drawn) | 86.2 to 87.5
COc1ccc2c(c1)CC(O)C2 (stereo not drawn) | 67 to 69
CCCNC(=O)N1N=C(c2ccc(N)cc2)c2cc(Cl)ccc2CC1C (stereo not drawn) | 88 to 90
C=C(C)COc1cc(Cl)ccc1[N+](=O)[O-] | 47 to 49
N#Cc1cc(N=Nc2cc(Cl)ccc2Cl)ccc1N | 250
COc1cc(C2CCN(C[C@@H](C)O)CC2)ccc1Nc1ncc2ccc(-c3ccccc3OC)n2n1 | 67 to 74
COc1ccccc1Nc1ccc2c(c1)OCc1cc(N)ccc1C2=O | 68.4
COc1cc(C=CC=C2SC(=O)NC2=O)ccc1OC(C)C | 230 to 231
Cc1ccccc1Cc1ccc(Cl)nn1 | 73.5
C=CCc1cc(Cc2cnc(N)nc2N)c2cccnc2c1OCCOC | 196 to 200
O=C(NCC12CC3CC(CC(C3)C1)C2)c1cc(-c2c(F)cccc2C(=O)O)ccc1Cl | 108 to 113
CN1CC(=O)Nc2ccc(-c3cccc([N+](=O)[O-])c3)cc21 | 237 to 243
COC1(c2cc(F)cc(Sc3ccc4c(c3)C=CC4=NO)c2)CCOCC1 | 124 to 136
CN1C(=O)N(C)P(C)(=S)C1=O (stereo not drawn) | 95
CC(Br)C(=O)NC1=NN(c2cccc(C(F)(F)F)c2)CC1 (stereo not drawn) | 54 to 56
CC1=C(c2ccc(C#N)c3ccccc23)CCC1O (stereo not drawn) | 113 to 114
CC(C)c1cc(C=C2NC(=S)NC2=O)cc(C(C)C)c1O | 225 to 230
CN1Cc2c(-c3noc(CCl)n3)ncn2-c2cccc(C(F)(F)F)c2C1=O | 180 to 184
Cc1[nH]c2ccc(F)cc2c1C(=O)Nc1ccc(OCC(C)(C)C)c(C#N)c1 | 169 to 171
CN1CCN(C2=Nc3ccc(F)cc3Nc3sc4cc(Br)ccc4c32)CC1 | 219 to 221

Compound | melting point [°C]
CNC(=O)c1cc(N2CCN(C)CC2)ncc1Br | 122 to 125
CC(=O)NCCOC(=O)C(Oc1cccc(C(F)(F)F)c1)c1ccc(Cl)cc1 (stereo not drawn) | 93 to 95
CC(C)(C)N1Sc2ccccc2C1O (stereo not drawn) | 114 to 116
CSc1c(CC(=O)O)cc(C)c2c3ccccc3n(Cc3ccccc3)c12 | 219 to 220
CCC(C)n1ncn(-c2ccc(N3CCN(c4ccc(OCC(O)(Cn5cncn5)c5ccc(Cl)cc5Cl)cc4)CC3)cn2)c1=O (stereo not drawn) | 144 to 145
CCOC(=O)c1cn(NC)c2c(F)c(F)c(F)cc2c1=O | 189
C[C@@H]1Cc2cc(Cl)ccc2O[C@H]1c1ccc(Cl)cc1 (relative stereo) | 135 to 137
Cn1nc(-c2ccc(C#N)cc2)cc(C(=O)N[C@H]2CC[C@H](C(=O)O)CC2)c1=O | 283 to 286
Cc1nc(CO)sc1-c1ccnc(Nc2ccc(N3CCCCC3)cc2)n1 | 194 to 195
O=c1[nH]c(=S)[nH]c2ccnn12 | 295
CN(C)C1CCN(c2nc(NCc3ccccc3)c3ncnc(NCc4ccccc4)c3n2)CC1 | 143 to 145
O=C(O)CCCc1ccc([N+](=O)[O-])cn1 | 108 to 110
Cc1c(Nc2ccc(Br)cc2C(=O)O)cccc1C(F)(F)F | 223 to 225
C=COC(=O)N1C[C@@H]2C(=O)CCC(c3ccccc3)(c3ccccc3)[C@@H]2C1 (racemic) | 178
Cn1c(C(F)(F)F)cc(=O)n(Cc2cc(I)cc(Cl)c2Cl)c1=O | 142 to 144
C/C(=C\c1ccc(OCCN2CCOCC2)cc1)c1ccc2c(c1)SC(C)(C)S2 | 90 to 91
CC(CC(=O)O)C(=O)NC1(C(=O)O)CCCC1 (stereo not drawn) | 169 to 170
CC(C)N1C(=O)c2ccccc2N(S(C)(=O)=O)S1(=O)=O | 156 to 158
O=C(O)C[C@H]1C[C@H](C(=O)O)Nc2cc(Cl)cc(Cl)c21 (relative stereo) | 229 to 231
Cc1ccc(C[C@H]2NC(=O)CN(Cc3ccccc3)C2=O)cc1C | 191 to 192
CCOC(=O)CCNC(=O)NC1CCN(c2ccc(C(=N)NOC(=O)OCC(Cl)(Cl)Cl)cc2)C1=O (stereo not drawn) | 196 to 198
CSc1nnc2c(=O)[nH]c(-c3ccccc3OCC(C)C)nc2n1 | 237 to 238
O=C(O)Cc1ccc(-c2ccc(C(F)(F)F)cc2)cc1 | 158 to 160
Nc1nc2c(nnn2COC(CO)CO)c(=O)[nH]1 | 233 to 234
O=C(O)C1=CSC2C(=Cc3cc4c(s3)CCOC4)C(=O)N12 (stereo not drawn) | > 250
CN(C)C1=NC2=NC3=C(CN(Cc4ccccc4)CC3=O)CN2N1 | 279 to 281

Compound | melting point [°C]
COc1cn(Cc2cccc3ccccc23)c(=O)o1 | 80 to 82
CCn1c(=O)n(CCCCC(C)(O)CC)c(=O)c2c1ncn2Cc1ccccc1 (stereo not drawn) | 93 to 94
COc1cc(-c2ccnc(-c3cn(C)c(=O)n3-c3ccc(C(C)(C)C#N)cc3)c2)ccn1 | 138
CN1C(=O)C(F)N=C(c2ccccc2F)c2cc(Br)ccc21 (stereo not drawn) | 127 to 130
COC1=C(C(=O)NNC(=O)Cc2ccc(F)cc2)CN(C(C)C)C1=O | 157 to 158
CC(O)(CCC#N)c1ccc(-c2ccc(F)cc2)cc1 (stereo not drawn) | 118 to 120
CC(C)(O)c1cnc2c(NC(=O)c3c(Cl)cccc3Cl)cccc2c1 | 187 to 189
Cc1ccc2[nH]cc(C(=O)[C@H]3CCCN3)c2c1 | 194 to 196
CN(C1CCSCC1)S(=O)(=O)c1ccc(Nc2nccc(Nc3ccc(F)cc3)n2)cc1 | 182
Cc1cc2ccccc2cc1C=O | 119
COc1ccc(-c2cnc(N3CCc4c([nH]c5ccccc45)C3c3ccc4c(c3)OCO4)nc2)cc1 (stereo not drawn) | 200 to 202
O=CNC1Cc2ccccc2NC1=O (stereo not drawn) | 197 to 200
CS(=O)(=O)c1ccc(-c2cnn(CC(F)(F)F)c(=O)c2OCc2ccco2)cc1 | 113 to 115
Fc1ccc2nc(Cl)c3nnc(C(F)(F)F)n3c2c1 | 135 to 138
CC(C)(C)c1cccc(C[C@@H](NC(=O)c2ccc(F)c3ccccc23)[C@@H](O)c2cccc(Cl)c2)c1 (racemic) | 76 to 78
Cc1ccc(S(=O)(=S)OCC2CC2)cc1 (stereo not drawn) | 46 to 48
COc1ccc(CCNc2nccc(-c3cccc(NC(C)=O)c3)n2)cc1OC | 146 to 148
C=Cc1ccc(CSCCNC(=O)CCCC(=O)O)cc1 | 118 to 119
Cc1ccccc1CCc1c(C(C)C)nc(C(C)C)c(CO)c1-c1ccc(F)cc1 | 125 to 126
CC(C#Cc1cccc(Oc2ccc(F)cc2)c1)N(O)C(N)=O (stereo not drawn) | 137 to 138
Cc1c(C)c2c(c(C)c1NCc1ccccc1)C(c1cccc(C3OCCO3)c1)CO2 (stereo not drawn) | 97 to 99
Nc1ccccc1S(=O)(=O)c1cc(C(=O)O)ccc1Cl | 235 to 238
O=C1CCCC(=O)C1c1ccccc1Cl | 148 to 149
CC(C)c1nc2cc(NC(=O)c3c(C(=O)N4CCC4)cnn3C)ccn2n1 | 226 to 227
COc1cc(OCC(=O)O)c(C)cc1SCc1ccc(-c2ccc(Cl)c(Cl)c2)cc1 | 161 to 162
N#Cc1cc2c(c(C(=O)O)c1-c1ccccc1)NCCC2C(=O)O (stereo not drawn) | 231 to 232

Compound | melting point [°C]
CCCCCCN(C)c1ccc(C=C2SC(=S)N(CC(=O)NS(=O)(=O)C(F)(F)F)C2=O)cc1 | 94 to 97
Cc1ccc(S(=O)(=O)OCC2Cc3cccc(C=CC(C)(C)C)c3O2)cc1 (stereo not drawn) | 85 to 88
CC(C)(C)NS(=O)(=O)c1ccccc1-c1ccccn1 | 147 to 150
COc1ccc(C(=O)OC2(c3nc4ccccc4s3)C=CC(=O)C=C2)cc1 | 137
CCCN(C)CC(C)N1c2ccccc2Sc2ccc(C(N)=S)cc21 (racemic) | 204
COc1ccc2c(Cc3c(Cl)cncc3Cl)n[nH]c(=O)c2c1 | 259 to 262
O=C(O)c1cn(-c2ccncc2F)c2nc(Cl)c(F)cc2c1=O | 228 to 230
CCOC(=O)Cc1nc2cc(Cl)ccc2n1CC | 44 to 45
Clc1cccc(N2CCN(CCCOc3ccc4scnc4c3)CC2)c1Cl | 127 to 129
O=CNc1ccc(S(=O)(=O)C[N+](=O)[O-])cc1 | 192 to 193
COc1ccc2c(c1)C(CCNC(=O)c1ccc(Br)cc1)CC2 (stereo not drawn) | 142 to 143
Oc1ccc2cc(-c3noc4ccc(O)cc34)ccc2c1 | 250 to 252
O=C(Nc1ccccc1)OC1C=CC2COC1O2 (stereo not drawn) | 107 to 109
CCCC1=NN(c2ccc([N+](=O)[O-])cc2)C(=O)C1=CNc1ccccc1CC | 211
CC(C)(C)N(NC(=O)c1ccccn1)C(=O)c1ccc(Cl)c(Cl)c1 | 175 to 178
COc1cccc([C@H]2O[C@H](CC(=O)NCc3ccc(C(=O)O)o3)C(=O)N(CC(C)(C)CO)c3ccc(Cl)cc32)c1OC | 128 to 131
Cn1nccc(N)c1=O | 191 to 192
O=C(c1ccccc1)c1cnn2c1NCCC2c1ccncc1 (stereo not drawn) | 186 to 189
CC(CF)(CF)C(O)C(Oc1ccc(Cl)cc1)n1ccnc1 (stereo not drawn) | 137
CC12CCC(=O)NC1=CCc1cc(F)ccc12 (stereo not drawn) | 202
C[Si](C)(Cc1ccccc1)CN1C(=O)c2ccccc2C1=O | 91 to 92
O=c1[nH]ncc(N2CCN(Cc3ccccc3)CC2)c1Cl | 173 to 175
COc1cc(N)c([N+](=O)[O-])cc1NCCO | 165
COc1cccc(CCc2c(CC#N)ccc(OC)c2OC)c1 | 98 to 100
Cc1cccc(C)c1NC(=O)N(Cc1ccccc1)CC1(c2ccccc2)CCCC1 | 200 to 202
